Measured values as given in the NIST ThermoML archive (doi:10.1016/j.jct.2015.08.033).

Test: mn = molality of the nth substance listed, in mol/kg
Conditions: 100 kPa, Liquid; for speed of sound: Frequency=3 MHz, Sing-around technique in a fixed-path interferometer; for mass density: Vibrating tube method

O=S(=O)([O-])C(F)(F)F.O=S(=O)([O-])C(F)(F)F.[Sr+2] [strontium trifluoromethanesulfonate] + CN(C)C=O
Conditions	mass density, 298.15 K [kg/m3]	mass density, 303.15 K [kg/m3]	mass density, 308.15 K [kg/m3]	mass density, 313.15 K [kg/m3]	mass density, 318.15 K [kg/m3]	speed of sound, 298.15 K [m/s]	speed of sound, 303.15 K [m/s]	speed of sound, 308.15 K [m/s]	speed of sound, 313.15 K [m/s]	speed of sound, 318.15 K [m/s]
m1 = 0.01062	946.522	941.756	936.972	932.186	927.378	1457.2	1438	1418.7	1399.5	1380.3
m1 = 0.01763	948.231	943.466	938.685	933.888	929.08	1457.2	1438	1418.7	1399.6	1380.4
m1 = 0.02656	950.395	945.626	940.844	936.049	931.241	1457.1	1438	1418.7	1399.6	1380.5
m1 = 0.03847	953.244	948.482	943.704	938.91	934.105	1457	1437.9	1418.7	1399.6	1380.6
m1 = 0.04908	955.781	951.013	946.233	941.439	936.634	1456.8	1437.8	1418.6	1399.6	1380.6
m1 = 0.06765	960.189	955.42	950.641	945.845	941.04	1456.5	1437.6	1418.5	1399.5	1380.7
m1 = 0.08503	964.269	959.5	954.718	949.923	945.118	1456.2	1437.3	1418.3	1399.5	1380.6
m1 = 0.1067	969.35	964.567	959.781	954.985	950.18	1456.1	1437.1	1418.2	1399.3	1380.6
m1 = 0.1286	974.403	969.629	964.845	960.047	955.242	1455.4	1436.7	1417.9	1399.1	1380.5
m1 = 0.1612	981.851	977.074	972.285	967.485	962.676	1454.7	1436.1	1417.4	1398.8	1380.2
